# According to the supplement of paper PMC9103864:
# Tests used:
# [1] = system: BMSC (primary human bone marrow mesenchymal stromal cells); assay: absolute EC50 for viability; higher = less sensitive
# [2] = system: BMSC (primary human bone marrow mesenchymal stromal cells); assay: drug sensitivity score (DSS); higher = more sensitive
SMILES,absolute EC50 for viability [1] [µM],drug sensitivity score [2]
CCN(CC)CCCC(C)Nc1c2ccc(Cl)cc2nc2ccc(OC)cc12 (stereo unspecified) [Mepacrine],1.58,17.7
S=c1[nH]cnc2nc[nH]c12 [Mercaptopurine],> 10,11.1
Cc1ccc(C(=O)Nc2ccc(Oc3cc4cnn(C)c4cc3-c3cn[nH]c3)c(F)c2)c(=O)n1-c1ccc(F)cc1 [Merestinib],> 1,1.4
CN(C)C(=N)NC(=N)N [Metformin],> 100,0
CN(Cc1cnc2nc(N)nc(N)c2n1)c1ccc(C(=O)N[C@@H](CCC(=O)O)C(=O)O)cc1 [Methotrexate],> 5,4.7
C[C@H]1C[C@@H]2[C@H]([C@@H](O)C[C@@]3(C)[C@H]2CC[C@]3(O)C(=O)CO)[C@@]2(C)C=CC(=O)C=C12 [Methylprednisolone],> 10,0
CO[C@@H]1[C@H](N(C)C(=O)c2ccccc2)C[C@H]2O[C@]1(C)n1c3ccccc3c3c4c(c5c6ccccc6n2c5c31)C(=O)NC4 [Midostaurin],1.65,7.5
CNC(=O)c1nn(C)c2c1C(C)(C)Cc1cnc(Nc3ccc(N4CCN(C)CC4)cc3)nc1-2 [Milciclib],> 10,10.1
CCCCCCCCCCCCCCCCOP(=O)([O-])OCC[N+](C)(C)C [Miltefosine],78.2,2.7
O=C(NOC[C@H](O)CO)c1ccc(F)c(F)c1Nc1ccc(I)cc1F [Mirdametinib],> 1,2.1
CO[C@@]12[C@H](COC(N)=O)C3=C(C(=O)C(C)=C(N)C3=O)N1C[C@@H]1N[C@@H]12 [Mitomycin],> 10,0
Clc1ccc(C(c2ccccc2Cl)C(Cl)Cl)cc1 (stereo unspecified) [Mitotane],> 10,0
O=C1c2c(O)ccc(O)c2C(=O)c2c(NCCNCCO)ccc(NCCNCCO)c21 [Mitoxantrone],0.185,8
CCS(=O)(=O)Nc1ccc(Oc2ccc(F)cc2F)c(-c2cn(C)c(=O)c3[nH]ccc23)c1 [Mivebresib],2.71,13
Nc1ccccc1NC(=O)c1ccc(CNc2nccc(-c3cccnc3)n2)cc1 [Mocetinostat],> 10,4.7
CCNC(=O)C[C@@H]1N=C(c2ccc(Cl)cc2)c2cc(OC)ccc2-n2c(C)nnc21 [Molibresib],> 10,3.3
N#CCNC(=O)c1ccc(-c2ccnc(Nc3ccc(N4CCOCC4)cc3)n2)cc1 [Momelotinib],> 10,5.1
CC1(C)CNc2cc(NC(=O)c3cccnc3NCc3ccncc3)ccc21 [Motesanib],> 10,0
CCCN(CCC)C(=O)C1=Cc2ccc(-c3ccc(C(=O)N4CCCC4)cc3)cc2N=C(N)C1 [Motolimod],9.93,0
FC(F)(F)c1ccc(/C=C/c2nc(COc3ccc(CCCCn4ccnn4)cc3)co2)cc1 [Mubritinib],> 1,0.4

SMILES,absolute EC50 for viability [1] [µM],drug sensitivity score [2]
Cc1cc(OCc2nnc(SC3CCCC3)n2-c2cccnc2)ccc1-c1ccc(S(C)(=O)=O)cc1 [NMS-873],5.4,4.1
Nc1ncnc2c1c(-c1cccc(OCc3ccccc3)c1)cn2C1CC(CN2CCC2)C1 (stereo unspecified) [NVP-AEW541],6.04,4.5
COc1ccc(-c2ccc3ncc4c(c3c2)n(-c2ccc(N3CCNCC3)c(C(F)(F)F)c2)c(=O)n4C)cn1 [NVP-BGT226],0.0263,17.5
COc1cc2c(cc1OC(C)C)[C@H](c1ccc(Cl)cc1)N(c1ccc(N(C)C[C@H]3CC[C@H](N4CCN(C)C(=O)C4)CC3)cc1)C(=O)C2 [NVP-CGM097],4.61,9.2
CN[C@@H](C)C(=O)N[C@H](C(=O)N1CCC[C@H]1c1nc(C(=O)c2ccc(F)cc2)cs1)C1CCCCC1 [NVP-LCL161],> 25,0
Cc1cc(-c2ncc(CC(=O)Nc3ccc(-c4cnccn4)cn3)cc2C)ccn1 [NVP-LGK974],> 10,0.4
CC1(N)CCN(c2cnc(-c3cccc(Cl)c3Cl)c(N)n2)CC1 [NVP-SHP099],> 10,0
CC(=O)c1cc2c(o1)C(=O)c1ccccc1C2=O [Napabucasin],0.64,17.6
CC1(C)CCC(c2ccc(Cl)cc2)=C(CN2CCN(c3ccc(C(=O)NS(=O)(=O)c4ccc(N[C@H](CCN5CCOCC5)CSc5ccccc5)c(S(=O)(=O)C(F)(F)F)c4)cc3)CC2)C1 [Navitoclax],> 10,0
CN1C(=O)N[C@H](Cc2c[nH]c3c(Cl)cccc23)C1=O [Necrostatin 2],> 10,0
O=c1ncn2nc(Sc3ccc(F)cc3F)ccc2c1-c1c(Cl)cccc1Cl [Neflamapimod],> 10,0.5
COc1nc(N)nc2c1ncn2[C@@H]1O[C@H](CO)[C@@H](O)[C@@H]1O [Nelarabine],> 10,0
CCOc1cc2ncc(C#N)c(Nc3ccc(OCc4ccccn4)c(Cl)c3)c2cc1NC(=O)/C=C/CN(C)C [Neratinib],> 1,2.3
Cc1cn(-c2cc(NC(=O)c3ccc(C)c(Nc4nccc(-c5cccnc5)n4)c3)cc(C(F)(F)F)c2)cn1 [Nilotinib],> 10,0
CC1(C)NC(=O)N(c2ccc([N+](=O)[O-])c(C(F)(F)F)c2)C1=O [Nilutamide],> 10,0
COC(=O)c1ccc2c(C(=Nc3ccc(N(C)C(=O)CN4CCN(C)CC4)cc3)c3ccccc3)c(O)[nH]c2c1 [Nintedanib],2.56,9.7
NC(=O)c1cccc2cn(-c3ccc([C@@H]4CCCNC4)cc3)nc12 [Niraparib],> 10,0.8
CC(O)c1cc(C(=O)N[C@@H](C)Cn2ccc(-c3ccc(C#N)c(Cl)c3)n2)n[nH]1 (stereo partly specified) [ODM-201],> 2.5,0
CC(=O)c1cnc2ccc(-c3cc(Cl)c(O)c(Cl)c3)nc2c1N[C@H]1CC[C@H](CN(C)C)CC1 [OTS167],> 1,2.9
O=C(c1cc(Cc2n[nH]c(=O)c3ccccc23)ccc1F)N1CCN(C(=O)C2CC2)CC1 [Olaparib],> 10,2.1

SMILES,absolute EC50 for viability [1] [µM],drug sensitivity score [2]
C=CC(=O)Nc1cccc(Oc2nc(Nc3ccc(N4CCN(C)CC4)cc3)nc3ccsc23)c1 [Olmutinib],> 1,0
COC(=O)C[C@](O)(CCCC(C)(C)O)C(=O)O[C@@H]1C(OC)=C[C@]23CCCN2CCc2cc4c(cc2[C@H]13)OCO4 [Omacetaxine],0.219,18.6
CC1(C)CC[C@]2(NC(=O)C(C)(F)F)CC[C@]3(C)[C@H](C(=O)C=C4[C@@]5(C)C=C(C#N)C(=O)C(C)(C)[C@@H]5CC[C@]43C)[C@@H]2C1 [Omaveloxolone],3.77,4.7
COc1ncc(-c2ccc3nccc(-c4ccnnc4)c3c2)cc1NS(=O)(=O)c1ccc(F)cc1F [Omipalisib],0.0979,11.6
CC(C)c1cc(C(=O)N2Cc3ccc(CN4CCN(C)CC4)cc3C2)c(O)cc1O [Onalespib],0.0904,12.5
COC[C@H](NC(=O)c1cnc(C)s1)C(=O)N[C@@H](COC)C(=O)N[C@@H](Cc1ccccc1)C(=O)[C@@]1(C)CO1 [Oprozomib],0.304,10
CNC(=O)c1ccc2cc([C@@]3(O)CCn4cncc43)ccc2c1 [Orteronel],> 10,0
C=CC(=O)Nc1cc(Nc2nccc(-c3cn(C)c4ccccc34)n2)c(OC)cc1N(C)CCN(C)C [Osimertinib],> 2.5,1.5
O=C(O)C(=O)O.[NH-][C@@H]1CCCC[C@H]1[NH-].[Pt+2] [Oxaliplatin],> 100,0.7
C=CCc1cccc(/C=N/NC(=O)CN2CCN(Cc3ccccc3)CC2)c1O [PAC-1],> 10,0.5
O=C(Nc1cccnc1)N1CCC(Cc2cccc(Oc3ccc(C(F)(F)F)cn3)c2)CC1 [PF-3845],9.93,0
COc1ccccc1S(=O)(=O)Nc1ccc2c(c1)CN(C)C(=O)N2 [PFI-1],> 30,1.9
CN1CCN(c2cc(C(=O)Nc3ccc4c(c3)-c3c(c(C(N)=O)nn3-c3ccc(F)cc3)CC4)c(Cl)cn2)CC1 [PHA 408],> 10,1.3
O=C(Nc1cc(Cl)cc2c1[nH]c1cnccc12)c1cccnc1 [PS-1145],> 25,0
COc1cc(Br)c(Nc2nc(-c3c(C)nc4ncccn34)cs2)c(Br)c1 [PTC-209],> 10,4
CC(=O)O[C@H]1C(=O)[C@@]2(C)[C@H]([C@H](OC(=O)c3ccccc3)[C@]3(O)C[C@H](OC(=O)[C@H](O)[C@@H](NC(=O)c4ccccc4)c4ccccc4)C(C)=C1C3(C)C)[C@]1(OC(C)=O)CO[C@@H]1C[C@@H]2O [Paclitaxel],> 1,2.7
C1=N/C2=N/c3ccc(OCCN4CCCC4)c(c3)COC/C=C/COCc3cccc(c3)C(=C1)N2 [Pacritinib],3.67,4.7
CC(=O)c1c(C)c2cnc(Nc3ccc(N4CCNCC4)cn3)nc2n(C2CCCC2)c1=O [Palbociclib],> 10,2.3
